This is an account of results in paper PMC2063203, “The renal effects of the water-soluble, non-folylpolyglutamate synthetase-dependent thymidylate synthase inhibitor ZD9331 in mice” (British Journal of Cancer, 1998).

“And” between values parts separate entries of the source, which are not always exact repeats. Equal values may be shown once.

This series deals with DBA-2 mice. The series can be described thus: Glomerular filtration rate (GFR) by [14C]inulin clearance after bolus drug. The class given is in vivo. As to the method:
British Journal of Cancer (1998) 78(11), 1457-1463 ? […] In contrast to Tomudex (ZD1694), ZD9331 may therefore be active against tumours with low FPGS activity. […] In view of the history of renal toxicity with some earlier TS inhibitors and the possible therapeutic use of bolus ZD9331, we have examined the effects of bolus ZD9331 dose and route of administration on plasma and kidney pharmacokinetics and renal function in mice. Renal function was assessed by measuring [14C]inulin clearance, and drug concentrations were assayed by reverse-phase high-performance liquid chromatography (HPLC). […] Kidney drug concentrations were slightly elevated in iv.- versus i.p.-treated animals at the low dose (50 mg kg-'), with a correspondingly larger area under the curve. However, at the highest dose (200 mg kg-'), peak kidney drug concentrations were 20-fold higher following i.v. administration than after i.p., with marked kidney retention, resulting in a 50-fold greater kidney drug exposure for the i.v. versus the i.p. route. […] These adverse effects can be readily overcome by i.p. administration, indicating the likely need for short infusions in clinical settings. […] Early studies established that nephrotoxicity may be a result of poor aqueous solubility of 2-amino compounds such as CB3717, and it was shown that 2-desamino CB3717 was more water soluble and less nephrotoxic (Jones et al, 1989; 1996). […] These polyglutamate forms also exibit intra- cellular retention, which may contribute to toxicity as well as anti- tumour activity. […] Such compounds might be expected to show activity in a different spectrum of tumours from ZD1694 and to have a more manageable toxicity profile because of the lack of retained cyto- toxic metabolites. […] MATERIALS AND METHODS Drug administration and animals The compound ZD933 1 (Figure 1) was provided as a white crystalline salt. ['4C]inulin was provided as a carboxylic acid (Amersham, UK, 250 µCi in 5 ml, specific activity 6.6 mCi mmol-') and diluted to an activity of 5 µCi ml-' in phosphate-buffered saline (PBS). ZD9331 was dissolved in 0.05 M sodium bicarbonate, 1457 1458 Ml Walton et al ~~ N Ny~~~14COOHH 0 H IN H N CH ~~~~H , 4 H3C N3 H Figure 1 The chemical structure of ZD9331 adjusted to pH 9.0 and administered either i.v. via the tail vein or i.p. at 0.01 ml g-' mouse body weight. [14C]inulin was administered at 0.05 gCi g-' (i.e. 0.01 ml g-') i.v. via the tail vein. Adult female DBA-2 mice were obtained from OLAC (Bicester, UK) and used at 8-12 weeks of age at a body weight of 15-25 g. Mice were housed in cages containing untreated sawdust and allowed access to food and water ad libitum. Sample preparation Plasma and tissue samples were prepared using standard tech- niques (Walton et al, 1996). Briefly, whole blood was obtained by cardiac puncture into heparinized syringes from halothane- anaesthetized mice. Plasma was prepared by centrifugation at 12 000 r.p.m. x 2 min in a bench-top microcentrifuge. Kidney and liver tissues were rapidly removed, washed and snap frozen on dry ice. Frozen plasma and tissues were stored at -20?C for up to 4 weeks prior to analysis. Individual samples were thawed on ice and handled rapidly. ZD9331 was extracted from whole plasma or tissue homogenates (33% w/v in 0.1 M Tris, pH 10.0) by the addition of an equal volume of acetonitrile, mixing and centrifugation and the super- natant removed for injection into the HPLC system. Samples were diluted with Tris buffer (0.1 M, pH 10.0) on to the linear part of the calibration curve prior to HPLC analysis. Extraction efficiencies were >95%. HPLC analysis Concentrations of ZD9331 were measured in biological samples using reversed phase HPLC on equipment supplied by Kontron (Watford, UK). Separations were carried out using stainless-steel columns heated at 45?C and packed with C18 Supelcosil ODS (10 cm x 4.6 mm, 5 µm bead size, Sigma, Dorset) and protected with NewGuard C18 columns (Anachem, Luton, UK). […]

As to `C#CCN(Cc1ccc2nc(N)[nH]c(=O)c2c1)c1ccc(C(=O)N[C@@H](CCC(=O)O)C(=O)O)cc1` [CB3717, N10-propargyl-5,8-dideazafolic acid, reference compound], the “effect on GFR” value (150 mg kg-1 i.p., 24 h after administration) is on record as “significant renal toxicity”; the “effect on GFR” value (150 mg kg-1 i.v., 4 h after administration) is listed as “significant renal toxicity”; the “effect on GFR” value (150 mg kg-1 i.v., 24 h after administration) was “significant renal toxicity”.
Take [14C]inulin [reference compound]: under “normal DBA-2 mice, i.v., two independent experiments”, the “plasma clearance of [14C]inulin” value is 19.5 mL/min/kg and 21.3 mL/min/kg.
